Experimental data published in patent US12029797B2, “Fatty acid derivative labeled with positron-emitting radionuclide” (ASTELLAS PHARMA INC., priority 2018, dated 2024).
“Also recorded” adds a separate entry of the source.

What was measured:
Format in all cases: in vivo
[1] = tested on: myocardial infarction model rat; assay: PET test using model rat with myocardial infarction by coronary artery ligation; conditions: male SD rat, about 10 MBq tail vein, 20 minutes after administration, versus untreated rat
Procedure: A myocardial infarction model was prepared by coronary artery ligation using SD rats, and a thoracic contrast PET test was performed using the solution containing the compound of Example 1 (7-[^18F]FTO).
In a state in which an untreated rat or a model rat with myocardial infarction was anesthetized with the inhalation anesthetic isoflurane using a male SD rat, the rat was held in a supine body position on a PET camera Inveon (manufactured by Siemens), and the solution containing the compound (about 10 MBq) was administered from the tail vein. After 20 minutes from the administration, PET imaging was performed for 5 minutes. The PET image was reconstructed and then image processing was performed.

[2] = tested on: DBA2 mouse; assay: PET test using normal mouse; radioactivity of isolated heart and femur by gamma counter; conditions: for SUV Femur: isolated femur; for SUV Femur / SUV Heart: 120 minutes after administration, about 10 MBq tail vein, male DBA2 mouse, gamma counter, average ± standard error of 5 cases; for SUV Heart: isolated heart
Procedure: A whole body contrast PET test was performed using the solution containing the compound of Example 1 (7-[^18F]FTO) or Reference Example 4 ([^18F]FTO) using a DBA2 mouse.
For performing non-invasive PET imaging, in a state in which a male DBA2 mouse was anesthetized with the inhalation anesthetic isoflurane, the mouse was held in a supine body position on a PET camera Inveon (manufactured by Siemens), the solution containing each compound (about 10 MBq) was administered from the tail vein, and after 90 minutes from the administration, PET imaging was performed for 5 minutes. The PET image was reconstructed and then image processing was performed. The heart and femur were isolated 120 minutes after the administration, and the amount of radioactivity was measured with a gamma counter 2480 WIZARD^2 (manufactured by PerkinElmer Inc.). The accumulation (SUV) of each compound was calculated as {radioactivity count (MBq/cc)/[dose (MBq)/body weight (g)] in the target organ}.

[3] = tested on: normal cynomolgus monkeys; assay: PET test using normal cynomolgus monkey (SUV in heart muscle and bone ROI); conditions: for accumulation to the heart muscle compared to [^18F]FTO / non-specific accumulation to the bone compared to [^18F]FTO: cynomolgus monkey PET, result in words; for SUV (Heart muscle): heart muscle ROI, about 300 MBq lower extremity vein, male cynomolgus monkey; for SUV (Bone): bone ROI (near the spine), n.d. = target organ cannot be confirmed in the image, ROI cannot be set
Source text: Solutions containing each compound prepared in Example 1 (7-[^18F]FTO), Example 2 (6-[^18F]FTO), Reference Example 4 ([^18F]FTO), Reference Example 5 (15-[^18F]FTO), and Reference Example 6 (17-[^18F]FTO) were used to perform a heart contrast PET test using normal cynomolgus monkeys.
For performing non-invasive PET imaging, in a state in which a male cynomolgus monkey was anesthetized with inhalation anesthetic isoflurane, the monkey was held at a supine body position on a PET camera SHR17000 (manufactured by Hamamatsu Photonics K.K.), the solution containing each compound (about 300 MBq) was administered from the lower extremity vein, and continuous imaging was performed for 180 minutes or 240 minutes after the administration. The PET images were reconstructed by dynamic row-action maximum likelihood algorithm (DRAMA) and average images are obtained every 20 minutes. Then, the region of interest (ROI) was set in the heart muscle region or bone (near the spine), and the accumulation (standardized uptake value (SUV)) of each compound was calculated as {radioactivity count in the ROI (MBq/cc)/[dose (MBq)/body weight (g)]}.
The SUV values quantified by setting the ROI for the heart muscle and the bone of each compound are shown in Tables 6 and 7 as SUV (heart muscle) and SUV (bone). […] A case where the target organ cannot be confirmed in the image and the ROI cannot be set is denoted as n.d, and a case where measurement is not performed is denoted as n.t. In addition, MIP (Maximum Intensity Projection) PET images 60 minutes and 240 minutes after the administration of the compounds of Reference Example 4 ([^18F]FTO) and Example 1 (7-[^18F]FTO) are shown in FIG. 1.

[4] = mouse, extracted organs, result in words
[5] = 20 Minutes after administration
[6] = 60 Minutes after administration
[7] = 120 Minutes after administration
[8] = 240 Minutes after administration

In the case of CCCCCCCC/C=C\CC([18F])CCSCCC(=O)O (stereo not shown) [Example 1, 3-{[(5Z)-3-[^18F]fluorotetradeca-5-en-1-yl]sulfanyl}propanoic acid], the “coronal section PET image of the heart in the myocardial infarction model rat” value [1] was “the signal was deleted in a part of the elliptical heart”, the “SUV Femur” value [2] was 0.48 ± 0.04 and the “SUV Heart” value [2] was 3.53 ± 0.77. The “accumulation to the heart compared to Reference Example 4” value [2, 4] was “excellent accumulation to the heart”, the “non-specific accumulation in the bone compared to Reference Example 4” value [2, 4] was “low non-specific accumulation in the bone” and the “accumulation to the heart muscle compared to [^18F]FTO” value [3] was “further increased”. For the same molecule, the “non-specific accumulation to the bone compared to [^18F]FTO” value ([3]; listed as 7-[^18F]FTO) was “equivalent or reduced; also recorded: not detected at all”, the “SUV (Heart muscle)” value [3, 5] was 8.46 and the “SUV (Heart muscle)” value [3, 6] was 9.26. The “SUV (Heart muscle)” value [3, 7] was 8.85 and the “SUV (Heart muscle)” value [3, 8] was 8.35.
For CCCCCCCC/C=C\CCC([18F])CSCCC(=O)O (stereo not shown) [Example 2, 3-{[(5Z)-2-[^18F]fluorotetradeca-5-en-1-yl]sulfanyl}propanoic acid], the “SUV (Bone)” value [3, 5] was 1.56, the “SUV (Bone)” value [3, 6] was 1.96 and the “SUV (Bone)” value [3, 7] was 2.49. The “accumulation to the heart muscle compared to [^18F]FTO” value [3] was “further increased”, the “non-specific accumulation to the bone compared to [^18F]FTO” value [3] was “equivalent or reduced” and the “SUV (Heart muscle)” value [3, 5] was 8.35. The “SUV (Heart muscle)” value [3, 6] was 7.25 and the “SUV (Heart muscle)” value [3, 7] was 6.60.
O=C(O)CCSCCCC/C=C\CCCCCCCC[18F] [Reference Example 4, 3-{[(5Z)-14-[^18F]fluorotetradeca-5-en-1-yl]sulfanyl}propanoic acid, reference compound] was tested, and the “SUV Femur” value [2] was 2.03 ± 0.32, the “SUV Heart” value [2] was 1.52 ± 0.25 and the “SUV (Bone)” value [3, 5] was 1.42 ± 0.10. For the same molecule, the “SUV (Bone)” value [3, 6] was 2.27 ± 0.13, the “SUV (Bone)” value [3, 7] was 3.82 ± 0.60 and the “SUV (Bone)” value [3, 8] was 6.15 ± 1.02. The “SUV (Heart muscle)” value [3, 5] was 6.45 ± 0.59, the “SUV (Heart muscle)” value [3, 6] was 6.54 ± 0.51 and the “SUV (Heart muscle)” value [3, 7] was 5.90 ± 0.58. The “SUV (Heart muscle)” value [3, 8] was 4.63 ± 0.57.
CCCC([18F])CCCC/C=C\CCCCSCCC(=O)O (stereo not shown) [Reference Example 5, 3-{[(5Z)-11-[^18F]fluorotetradeca-5-en-1-yl]sulfanyl}propanoic acid] was tested, and the “SUV (Bone)” value [3, 5] was 1.27, the “SUV (Bone)” value [3, 6] was 1.17 and the “SUV (Bone)” value [3, 7] was 1.54. For the same molecule, the “SUV (Bone)” value [3, 8] was 2.10, the “accumulation to the heart muscle compared to [^18F]FTO” value [3] was “slightly reduced” and the “non-specific accumulation to the bone compared to [^18F]FTO” value ([3]; listed as 15-[^18F]FTO) was “equivalent or reduced; also recorded: the accumulation in the bone was also observed”. The “SUV (Heart muscle)” value [3, 5] was 4.79, the “SUV (Heart muscle)” value [3, 6] was 3.60 and the “SUV (Heart muscle)” value [3, 7] was 3.21. The “SUV (Heart muscle)” value [3, 8] was 2.78.
In the case of CC([18F])CCCCCC/C=C\CCCCSCCC(=O)O (stereo not shown) [Reference Example 6, 3-{[(5Z)-13-[^18F]fluorotetradeca-5-en-1-yl]sulfanyl}propanoic acid], the “SUV (Bone)” value [3, 5] was 1.11, the “SUV (Bone)” value [3, 6] was 1.28 and the “SUV (Bone)” value [3, 7] was 1.94. The “SUV (Bone)” value [3, 8] was 3.23, the “accumulation to the heart muscle compared to [^18F]FTO” value [3] was “slightly reduced” and the “non-specific accumulation to the bone compared to [^18F]FTO” value ([3]; listed as 17-[^18F]FTO) was “equivalent or reduced; also recorded: the accumulation in the bone was also observed”. The “SUV (Heart muscle)” value [3, 5] was 5.88, the “SUV (Heart muscle)” value [3, 6] was 5.78 and the “SUV (Heart muscle)” value [3, 7] was 4.86. For the same molecule, the “SUV (Heart muscle)” value [3, 8] was 2.60.
